Experiment [1] deals with T1, Progesterone receptor (Homo sapiens, UniProt P06401).
T1 sequence (P06401 whole entry): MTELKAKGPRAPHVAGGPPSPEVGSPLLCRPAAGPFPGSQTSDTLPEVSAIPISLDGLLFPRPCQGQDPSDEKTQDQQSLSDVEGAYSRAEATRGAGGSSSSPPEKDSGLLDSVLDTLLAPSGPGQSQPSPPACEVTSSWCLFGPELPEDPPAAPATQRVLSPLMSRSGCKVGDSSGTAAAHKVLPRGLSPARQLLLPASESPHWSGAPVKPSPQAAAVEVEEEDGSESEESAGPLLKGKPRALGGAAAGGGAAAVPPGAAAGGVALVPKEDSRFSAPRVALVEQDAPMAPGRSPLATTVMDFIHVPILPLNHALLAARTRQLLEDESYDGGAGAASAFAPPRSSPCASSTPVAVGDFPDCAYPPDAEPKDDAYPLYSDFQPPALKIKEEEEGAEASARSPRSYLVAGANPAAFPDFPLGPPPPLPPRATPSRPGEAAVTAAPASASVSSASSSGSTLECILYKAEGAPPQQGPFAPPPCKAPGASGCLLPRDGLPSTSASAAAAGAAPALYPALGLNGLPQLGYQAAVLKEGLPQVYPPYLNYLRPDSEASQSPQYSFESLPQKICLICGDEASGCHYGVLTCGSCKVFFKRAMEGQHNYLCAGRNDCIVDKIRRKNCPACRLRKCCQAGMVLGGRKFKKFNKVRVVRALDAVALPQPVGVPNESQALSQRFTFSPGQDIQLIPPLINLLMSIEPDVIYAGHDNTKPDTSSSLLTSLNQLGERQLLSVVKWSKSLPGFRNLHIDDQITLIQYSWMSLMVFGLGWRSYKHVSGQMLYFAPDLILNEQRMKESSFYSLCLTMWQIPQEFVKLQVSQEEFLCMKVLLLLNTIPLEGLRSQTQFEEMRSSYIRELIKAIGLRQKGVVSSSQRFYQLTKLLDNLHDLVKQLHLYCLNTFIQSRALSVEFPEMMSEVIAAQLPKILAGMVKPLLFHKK
Briefly: Antagonist activity at progesterone receptor in human T47D cells incubated for 24 hrs in presence of P4 by alkaline phosphatase assay. Format: cell-based.

Experiment [2] concerns the target T1, Progesterone receptor. Description: Displacement of [1,2,6,7-3H]-PG from recombinant human GST-tagged PR-LBD (657 to 933 residues) expressed in baculovirus infected insect cells measured after 24 hrs by liquid scintillation counting method.
Experiment [3] deals with T2, Progesterone receptor (Homo sapiens) (UniProt P06401).
T2 sequence (whole entry): T1 sequence (P06401 whole entry)
Description: Antagonist activity at progesterone receptor in human T47D cells assessed as suppression of P4-induced Na/K-ATPase-beta1 expression level at 1 and 10 uM measured after 16 hrs by Western blot analysis. The class given is cell-based.

For experiment [4], the target named is T3, Androgen receptor (Homo sapiens, UniProt P10275).
T3 sequence (P10275 whole entry): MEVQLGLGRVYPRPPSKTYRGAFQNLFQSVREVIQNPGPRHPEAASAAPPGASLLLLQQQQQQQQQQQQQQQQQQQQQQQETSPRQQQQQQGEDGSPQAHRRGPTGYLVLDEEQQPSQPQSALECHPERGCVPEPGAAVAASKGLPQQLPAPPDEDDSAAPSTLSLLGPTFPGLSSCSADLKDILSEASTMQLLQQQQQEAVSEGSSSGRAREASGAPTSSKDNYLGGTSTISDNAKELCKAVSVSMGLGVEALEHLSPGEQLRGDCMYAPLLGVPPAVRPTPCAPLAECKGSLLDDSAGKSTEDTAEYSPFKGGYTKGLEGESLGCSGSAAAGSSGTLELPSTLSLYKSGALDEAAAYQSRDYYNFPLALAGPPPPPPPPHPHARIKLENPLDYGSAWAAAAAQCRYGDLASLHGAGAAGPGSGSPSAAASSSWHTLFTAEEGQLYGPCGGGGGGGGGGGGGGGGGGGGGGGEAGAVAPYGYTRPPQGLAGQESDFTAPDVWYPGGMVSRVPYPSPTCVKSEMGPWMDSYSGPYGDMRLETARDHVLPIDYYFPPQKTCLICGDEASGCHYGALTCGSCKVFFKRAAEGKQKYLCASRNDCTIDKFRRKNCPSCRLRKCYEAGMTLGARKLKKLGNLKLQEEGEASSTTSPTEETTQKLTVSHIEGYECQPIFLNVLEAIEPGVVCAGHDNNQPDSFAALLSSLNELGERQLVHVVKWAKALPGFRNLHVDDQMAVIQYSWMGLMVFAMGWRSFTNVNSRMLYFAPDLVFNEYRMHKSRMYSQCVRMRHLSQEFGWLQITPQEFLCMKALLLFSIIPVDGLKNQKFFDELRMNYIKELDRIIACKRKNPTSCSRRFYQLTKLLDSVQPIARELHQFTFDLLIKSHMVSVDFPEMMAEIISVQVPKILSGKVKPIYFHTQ
Briefly: Antagonist activity at human AR expressed in HEK293 cells measured after 24 hrs by luciferase reporter gene assay. Format: cell-based.

Experiment [5] deals with T4, Glucocorticoid receptor (Homo sapiens, UniProt P04150).
T4 sequence (P04150 whole entry): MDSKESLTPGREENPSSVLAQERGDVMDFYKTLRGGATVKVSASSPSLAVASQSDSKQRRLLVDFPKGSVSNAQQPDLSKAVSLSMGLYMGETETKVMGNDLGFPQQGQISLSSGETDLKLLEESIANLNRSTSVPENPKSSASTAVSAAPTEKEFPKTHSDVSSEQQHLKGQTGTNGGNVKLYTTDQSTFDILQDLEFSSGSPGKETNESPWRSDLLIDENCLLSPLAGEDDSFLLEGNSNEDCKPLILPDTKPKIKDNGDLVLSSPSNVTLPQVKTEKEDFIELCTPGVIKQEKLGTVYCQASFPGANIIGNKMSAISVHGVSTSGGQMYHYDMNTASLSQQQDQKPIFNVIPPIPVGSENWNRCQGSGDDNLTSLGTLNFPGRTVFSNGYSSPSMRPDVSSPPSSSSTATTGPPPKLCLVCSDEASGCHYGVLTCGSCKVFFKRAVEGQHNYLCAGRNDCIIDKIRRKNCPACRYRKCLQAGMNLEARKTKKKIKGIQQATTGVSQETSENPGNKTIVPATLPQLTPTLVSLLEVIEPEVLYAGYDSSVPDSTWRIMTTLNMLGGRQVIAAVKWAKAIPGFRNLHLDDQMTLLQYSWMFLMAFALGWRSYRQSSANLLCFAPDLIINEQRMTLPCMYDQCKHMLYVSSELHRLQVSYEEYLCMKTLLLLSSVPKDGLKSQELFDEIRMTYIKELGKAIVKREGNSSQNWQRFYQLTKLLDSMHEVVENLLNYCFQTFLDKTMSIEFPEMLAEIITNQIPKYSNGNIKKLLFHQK
Briefly: Antagonist activity at human glucocorticoid receptor-alpha expressed in HEK293 cells measured after 24 hrs by luciferase reporter gene assay. Format: cell-based.

The target of experiment [6] is T5, Estrogen receptor (Homo sapiens, UniProt P03372).
T5 sequence (P03372 whole entry): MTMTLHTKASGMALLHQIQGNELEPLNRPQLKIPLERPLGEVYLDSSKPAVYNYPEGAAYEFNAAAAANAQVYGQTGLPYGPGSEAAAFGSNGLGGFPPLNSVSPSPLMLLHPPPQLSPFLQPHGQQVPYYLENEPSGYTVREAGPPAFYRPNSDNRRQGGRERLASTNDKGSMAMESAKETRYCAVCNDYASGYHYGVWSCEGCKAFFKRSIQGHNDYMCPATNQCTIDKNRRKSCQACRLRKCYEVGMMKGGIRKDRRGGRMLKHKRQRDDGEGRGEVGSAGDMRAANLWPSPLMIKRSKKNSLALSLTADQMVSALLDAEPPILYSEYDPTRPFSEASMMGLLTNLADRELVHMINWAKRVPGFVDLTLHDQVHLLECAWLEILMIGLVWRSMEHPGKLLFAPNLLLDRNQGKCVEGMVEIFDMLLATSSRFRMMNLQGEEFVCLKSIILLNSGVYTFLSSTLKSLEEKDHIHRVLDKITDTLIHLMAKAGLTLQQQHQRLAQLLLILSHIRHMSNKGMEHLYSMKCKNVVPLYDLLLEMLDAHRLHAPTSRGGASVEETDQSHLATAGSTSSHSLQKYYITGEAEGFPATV
Briefly: Antagonist activity at human Gal4-tagged estrogen receptor-alpha LBD expressed in HEK293 cells measured after 24 hrs by luciferase reporter gene assay. The class given is cell-based.

Experiment [7] addresses Estrogen receptor beta (Homo sapiens, UniProt Q92731). Briefly: Antagonist activity at human Gal4-tagged estrogen receptor-beta LBD expressed in HEK293 cells measured after 24 hrs by luciferase reporter gene assay. The class given is cell-based.

The structures appear in SMILES notation. Activity calls are given as the source filed them. The rule behind the calls is not given here.

Sequence of Estrogen receptor beta (Q92731 whole entry, the tested form may be a part): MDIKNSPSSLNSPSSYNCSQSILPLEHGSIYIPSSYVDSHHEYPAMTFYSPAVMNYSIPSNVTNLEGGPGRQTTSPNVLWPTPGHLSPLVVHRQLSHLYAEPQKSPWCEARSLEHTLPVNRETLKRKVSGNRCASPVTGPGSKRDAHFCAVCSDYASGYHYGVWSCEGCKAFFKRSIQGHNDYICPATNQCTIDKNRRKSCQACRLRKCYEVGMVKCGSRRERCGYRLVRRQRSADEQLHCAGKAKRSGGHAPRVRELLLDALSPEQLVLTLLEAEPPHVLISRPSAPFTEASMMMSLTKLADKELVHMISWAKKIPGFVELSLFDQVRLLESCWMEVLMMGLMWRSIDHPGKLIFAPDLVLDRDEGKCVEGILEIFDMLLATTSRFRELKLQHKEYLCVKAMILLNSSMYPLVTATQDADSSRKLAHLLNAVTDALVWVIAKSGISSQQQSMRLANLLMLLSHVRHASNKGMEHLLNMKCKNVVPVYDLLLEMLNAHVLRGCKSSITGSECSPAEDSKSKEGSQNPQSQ

Take `O=S(=O)(Nc1ccc(Oc2ccccc2)cc1)c1cccc(C(F)(F)F)c1`: the half-inhibitory concentration (IC50) was 0.033 µM in experiment [1]; 0.04 µM in experiment [2]; 5.3 µM in experiment [4]; 12 µM in experiment [5]; > 30 µM in experiment [6]; 23 µM in experiment [7]. In addition, the inhibition result in experiment [3] is “Active”.

The values above are taken from ChEMBL document CHEMBL3865849, “Development of N-(4-Phenoxyphenyl)benzenesulfonamide Derivatives as Novel Nonsteroidal Progesterone Receptor Antagonists” (ACS Med Chem Lett, 2016).
